Measured values from PubChem BioAssay (NCI).
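Briefly, cells in 96-well plates were exposed to five compound concentrations for 48 h, and endpoints were estimated by linear interpolation. GI50: concentration for 50% inhibition of growth. Definition used: TGI = concentration required for complete inhibition of growth.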

Tests used:
Assay in all cases: NCI-60 cell line screen, 48 h
786-0 renal = test system: 786-0 renal
A498 renal = test system: A498 renal
A549 NSCLC = test system: A549 NSCLC
ACHN renal = test system: ACHN renal
BT-549 breast = test system: BT-549 breast
CAKI-1 renal = test system: CAKI-1 renal
COLO 205 colon = test system: COLO 205 colon
DU-145 prostate = test system: DU-145 prostate
EKVX NSCLC = test system: EKVX NSCLC
HCC-2998 colon = test system: HCC-2998 colon
HCT-116 colon = test system: HCT-116 colon
HCT-15 colon = test system: HCT-15 colon
HL-60(TB) leukemia = test system: HL-60(TB) leukemia
HOP-62 NSCLC = test system: HOP-62 NSCLC
HOP-92 NSCLC = test system: HOP-92 NSCLC
HS 578T breast = test system: HS 578T breast
HT29 colon = test system: HT29 colon
IGROV1 ovarian = test system: IGROV1 ovarian
K-562 leukemia = test system: K-562 leukemia
KM12 colon = test system: KM12 colon
LOX IMVI melanoma = test system: LOX IMVI melanoma
M14 melanoma = test system: M14 melanoma
MALME-3M melanoma = test system: MALME-3M melanoma
MCF7 breast = test system: MCF7 breast
MDA-MB-231 breast = test system: MDA-MB-231 breast
MDA-MB-435 = test system: MDA-MB-435
MOLT-4 leukemia = test system: MOLT-4 leukemia
NCI-H226 lung = test system: NCI-H226 lung
NCI-H460 lung = test system: NCI-H460 lung
NCI-H522 lung = test system: NCI-H522 lung
NCI/ADR-RES ovarian = test system: NCI/ADR-RES ovarian
OVCAR-3 ovarian = test system: OVCAR-3 ovarian
OVCAR-4 ovarian = test system: OVCAR-4 ovarian
OVCAR-5 ovarian = test system: OVCAR-5 ovarian
OVCAR-8 ovarian = test system: OVCAR-8 ovarian
PC-3 prostate = test system: PC-3 prostate
RPMI-8226 leukemia = test system: RPMI-8226 leukemia
RXF 393 renal = test system: RXF 393 renal
SF-268 CNS = test system: SF-268 CNS
SF-295 CNS = test system: SF-295 CNS
SF-539 CNS = test system: SF-539 CNS
SK-MEL-2 melanoma = test system: SK-MEL-2 melanoma
SK-MEL-28 melanoma = test system: SK-MEL-28 melanoma
SK-MEL-5 melanoma = test system: SK-MEL-5 melanoma
SK-OV-3 ovarian = test system: SK-OV-3 ovarian
SN12C renal = test system: SN12C renal
SNB-19 CNS = test system: SNB-19 CNS
SNB-75 CNS = test system: SNB-75 CNS
SR leukemia = test system: SR leukemia
SW-620 colon = test system: SW-620 colon
T-47D breast = test system: T-47D breast
TK-10 renal = test system: TK-10 renal
U251 CNS = test system: U251 CNS
UACC-257 melanoma = test system: UACC-257 melanoma
UACC-62 melanoma = test system: UACC-62 melanoma
UO-31 renal = test system: UO-31 renal

CC(=O)Oc1ccccc1C(=O)Nc1ccc(C(=O)/C=C/c2ccncc2)cc1
GI50 (786-0 renal): > 100 µM | TGI (786-0 renal): > 100 µM | GI50 (A498 renal): > 100 µM | TGI (A498 renal): > 100 µM | GI50 (A549 NSCLC): > 100 µM | TGI (A549 NSCLC): > 100 µM | GI50 (ACHN renal): 59.7 µM | TGI (ACHN renal): > 100 µM | GI50 (BT-549 breast): 25.1 µM | TGI (BT-549 breast): > 100 µM | GI50 (CAKI-1 renal): 42.8 µM | TGI (CAKI-1 renal): > 100 µM | GI50 (COLO 205 colon): 38.1 µM | TGI (COLO 205 colon): > 100 µM | GI50 (DU-145 prostate): 58.2 µM | TGI (DU-145 prostate): > 100 µM | GI50 (EKVX NSCLC): > 100 µM | TGI (EKVX NSCLC): > 100 µM | GI50 (HCC-2998 colon): 22.2 µM | TGI (HCC-2998 colon): 55.2 µM | GI50 (HCT-116 colon): 13.3 µM | TGI (HCT-116 colon): 28.2 µM | GI50 (HCT-15 colon): 25.7 µM | TGI (HCT-15 colon): > 100 µM | GI50 (HL-60(TB) leukemia): 34.8 µM | TGI (HL-60(TB) leukemia): > 100 µM | GI50 (HOP-62 NSCLC): > 100 µM | TGI (HOP-62 NSCLC): > 100 µM | GI50 (HOP-92 NSCLC): 4.6 µM | TGI (HOP-92 NSCLC): > 100 µM | GI50 (HS 578T breast): 57.4 µM | TGI (HS 578T breast): > 100 µM | GI50 (HT29 colon): 30.5 µM | TGI (HT29 colon): > 100 µM | GI50 (IGROV1 ovarian): 51.7 µM | TGI (IGROV1 ovarian): > 100 µM | GI50 (K-562 leukemia): 22.7 µM | TGI (K-562 leukemia): > 100 µM | GI50 (KM12 colon): 25.9 µM | TGI (KM12 colon): > 100 µM | GI50 (LOX IMVI melanoma): 12.8 µM | TGI (LOX IMVI melanoma): 34.8 µM | GI50 (M14 melanoma): 40.8 µM | TGI (M14 melanoma): > 100 µM | GI50 (MALME-3M melanoma): > 100 µM | TGI (MALME-3M melanoma): > 100 µM | GI50 (MCF7 breast): 6.13 µM | TGI (MCF7 breast): > 100 µM | GI50 (MDA-MB-231 breast): > 100 µM | TGI (MDA-MB-231 breast): > 100 µM | GI50 (MDA-MB-435): 27.8 µM | TGI (MDA-MB-435): > 100 µM | GI50 (MOLT-4 leukemia): 40.2 µM | TGI (MOLT-4 leukemia): > 100 µM | GI50 (NCI-H226 lung): > 100 µM | TGI (NCI-H226 lung): > 100 µM | GI50 (NCI-H460 lung): 36.6 µM | TGI (NCI-H460 lung): > 100 µM | GI50 (NCI-H522 lung): > 100 µM | TGI (NCI-H522 lung): > 100 µM | GI50 (NCI/ADR-RES ovarian): > 100 µM | TGI (NCI/ADR-RES ovarian): > 100 µM | GI50 (OVCAR-3 ovarian): 36.1 µM | TGI (OVCAR-3 ovarian): > 100 µM | GI50 (OVCAR-4 ovarian): 85.8 µM | TGI (OVCAR-4 ovarian): > 100 µM | GI50 (OVCAR-5 ovarian): > 100 µM | TGI (OVCAR-5 ovarian): > 100 µM | GI50 (OVCAR-8 ovarian): > 100 µM | TGI (OVCAR-8 ovarian): > 100 µM | GI50 (PC-3 prostate): 49.8 µM | TGI (PC-3 prostate): > 100 µM | GI50 (RPMI-8226 leukemia): 15 µM | TGI (RPMI-8226 leukemia): 49.2 µM | GI50 (RXF 393 renal): 24.4 µM | TGI (RXF 393 renal): 98.9 µM | GI50 (SF-268 CNS): 61.8 µM | TGI (SF-268 CNS): > 100 µM | GI50 (SF-295 CNS): > 100 µM | TGI (SF-295 CNS): > 100 µM | GI50 (SF-539 CNS): 30.5 µM | TGI (SF-539 CNS): > 100 µM | GI50 (SK-MEL-2 melanoma): > 100 µM | TGI (SK-MEL-2 melanoma): > 100 µM | GI50 (SK-MEL-28 melanoma): > 100 µM | TGI (SK-MEL-28 melanoma): > 100 µM | GI50 (SK-MEL-5 melanoma): > 100 µM | TGI (SK-MEL-5 melanoma): > 100 µM | GI50 (SK-OV-3 ovarian): > 100 µM | TGI (SK-OV-3 ovarian): > 100 µM | GI50 (SN12C renal): 55.3 µM | TGI (SN12C renal): > 100 µM | GI50 (SNB-19 CNS): > 100 µM | TGI (SNB-19 CNS): > 100 µM | GI50 (SNB-75 CNS): > 100 µM | TGI (SNB-75 CNS): > 100 µM | GI50 (SR leukemia): 22.4 µM | TGI (SR leukemia): 89.5 µM | GI50 (SW-620 colon): 24.3 µM | TGI (SW-620 colon): > 100 µM | GI50 (T-47D breast): 60 µM | TGI (T-47D breast): > 100 µM | GI50 (TK-10 renal): > 100 µM | TGI (TK-10 renal): > 100 µM | GI50 (U251 CNS): 35.6 µM | TGI (U251 CNS): > 100 µM | GI50 (UACC-257 melanoma): > 100 µM | TGI (UACC-257 melanoma): > 100 µM | GI50 (UACC-62 melanoma): > 100 µM | TGI (UACC-62 melanoma): > 100 µM | GI50 (UO-31 renal): 63.2 µM | TGI (UO-31 renal): > 100 µM
